From patent publication US5932743A, “Methods for the solid phase synthesis of substituted indole compounds” (American Home Products Corporation, priority 1998, dated 1999)

Molecular target: T1, human estrogen receptor (Homo sapiens, UniProt P03372)
T1 construct: expressed in transfected cells; host or cells: Chinese Hamster Ovary cells (CHO), stably transfected
T1 sequence (P03372 1-595): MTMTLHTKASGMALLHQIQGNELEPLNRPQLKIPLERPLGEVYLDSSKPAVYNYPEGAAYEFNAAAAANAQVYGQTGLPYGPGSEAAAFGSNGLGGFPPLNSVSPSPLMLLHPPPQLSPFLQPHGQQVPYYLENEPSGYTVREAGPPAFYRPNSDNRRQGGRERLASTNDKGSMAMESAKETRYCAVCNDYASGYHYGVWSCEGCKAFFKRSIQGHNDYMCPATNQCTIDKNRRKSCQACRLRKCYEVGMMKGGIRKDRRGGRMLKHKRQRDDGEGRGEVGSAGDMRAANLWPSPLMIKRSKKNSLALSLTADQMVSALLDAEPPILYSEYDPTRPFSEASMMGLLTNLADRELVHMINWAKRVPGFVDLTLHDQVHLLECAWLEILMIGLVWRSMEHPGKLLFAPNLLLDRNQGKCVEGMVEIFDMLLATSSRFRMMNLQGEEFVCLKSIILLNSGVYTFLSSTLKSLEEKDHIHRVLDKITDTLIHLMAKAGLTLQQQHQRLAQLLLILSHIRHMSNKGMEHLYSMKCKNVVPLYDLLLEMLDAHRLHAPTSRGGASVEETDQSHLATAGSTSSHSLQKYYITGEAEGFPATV
Experiment: 2X VIT ERE Transfection Assay (estrogen receptor assay; luciferase reporter activity compared to 17β-estradiol in CHO cells stably transfected with the human estrogen receptor)
Type: cell-based
Settings: 1 μM compound
Description: Enhancement of luciferase gene expression in this model is dependent upon estrogen receptor (ER) interaction with a vitellogenin gene estrogen responsive element (ERE) capable of enhancing basal promoter activity. This is a sensitive and rapid methodology to assess estrogenic/antiestrogenic potency of compounds.
48 h prior to treatment the growth medium is replaced with DMEM lacking phenol red+10% dextran coated charcoal stripped FBS (treatment medium). Cells are plated at a density of 5000 cells/well in 96-well plates containing 200 μL of medium/well.
20 μL of this mixture is added to each well of cells and remains on the cells for 16 h. […] Each treatment condition is performed on 8 wells (n=8) which are incubated for 24 h prior to luciferase assay.
The data is logged and automatically sent to a JMP statistical program for analysis. A hard copy printout is also produced at the time of the assay.
A plate containing a standard curve (0.1 to 1.5 milliunits in triplicate) is set up for each experimental run. The plates are analyzed on a Molecular Devices spectrophotometric plate reader at 410 nm. The optical densities for the unknowns are converted to milliunits of activity by mathematical extrapolation from the standard curve. […] The mean and standard deviation is determined from a n=8 for each treatment.

Structure (SMILES): CCOC(=O)Cn1c(-c2ccccc2)c(C2=C(C(=O)OC)CCC2)c2ccc(C(=O)O)cc21 [Example 12, 1-Ethoxycarbonylmethyl-3-(2-methoxycarbonyl-cyclopent-1-enyl)-2-phenyl-1H-indole-6-carboxylic Acid]
- estrogenic classification / activity in words: estrogenic
